Assay results: the supplement of paper PMC10307832

Experiments:
Assay in all cases: relative viability (nuclei count vs DMSO), 5 days (fraction); higher = more cells survive
NCI-H1734 = tested on: NCI-H1734
Summary of the method: (§1)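 Lung cancer cell lines were pin-tool dosed in 1536-well plates on the day after seeding, with either a lone drug or a fixed anchor-drug dose plus five library-drug doses (not always all listed) in √10 steps. Nuclei were counted on 4× images after 5 days. Relative viability is the ratio of treated-well to vehicle-well nuclei counts, with each value a median of duplicate plates.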

NCI-H1993 = tested on: NCI-H1993
Summary of the method: as §1

SK-LU-1 = tested on: SK-LU-1
Summary of the method: as §1

NCI-H2342 = tested on: NCI-H2342
Summary of the method: as §1

NCI-H1355 = tested on: NCI-H1355
Summary of the method: as §1

NCI-H1915 = tested on: NCI-H1915
Summary of the method: as §1

SW 1573 = tested on: SW 1573
Summary of the method: as §1

LCLC-103H = tested on: LCLC-103H
Summary of the method: as §1

NCI-H1975 = tested on: NCI-H1975
Summary of the method: as §1

NCI-H2347 = tested on: NCI-H2347
Summary of the method: as §1

HCC-827 = tested on: HCC-827
Summary of the method: as §1

NCI-H23 = tested on: NCI-H23
Summary of the method: as §1

NCI-H650 = tested on: NCI-H650
Summary of the method: as §1

SK-MES-1 = tested on: SK-MES-1
Summary of the method: as §1

UMC-11 = tested on: UMC-11
Summary of the method: as §1

NCI-H1755 = tested on: NCI-H1755
Summary of the method: as §1

HCC-366 = tested on: HCC-366
Summary of the method: as §1

RERF-LC-KJ = tested on: RERF-LC-KJ
Summary of the method: as §1

NCI-H2170 = tested on: NCI-H2170
Summary of the method: as §1

NCI-H1792 = tested on: NCI-H1792
Summary of the method: as §1

A-427 = tested on: A-427
Summary of the method: as §1

LC-2-ad = tested on: LC-2-ad
Summary of the method: as §1

`Cc1cn(-c2cc(NC(=O)c3ccc(C)c(Nc4nccc(-c5cccnc5)n4)c3)cc(C(F)(F)F)c2)cn1` [Nilotinib] + Nc1ncn([C@H]2C[C@H](O)[C@@H](CO)O2)c(=O)n1 [Decitabine] (partner 2 µM) showed a relative viability (NCI-H1734; first compound 0.001 µM) of 0.526, a relative viability (NCI-H1734; first compound 0.003162 µM) of 0.605 and a relative viability (NCI-H1734; first compound 0.01 µM) of 0.629. For the same compound, the relative viability (NCI-H1734; first compound 0.03162 µM) was 0.576, the relative viability (NCI-H1734; first compound 0.1 µM) was 0.455 and the relative viability (NCI-H1993; first compound 0.001 µM) was 0.496. The relative viability (NCI-H1993; first compound 0.003162 µM) was 0.694, the relative viability (NCI-H1993; first compound 0.01 µM) was 0.658 and the relative viability (NCI-H1993; first compound 0.03162 µM) was 0.517. It also gave a relative viability (NCI-H1993; first compound 0.1 µM) of 0.62, a relative viability (SK-LU-1; first compound 0.001 µM) of 0.532 and a relative viability (SK-LU-1; first compound 0.003162 µM) of 0.627. It also gave a relative viability (SK-LU-1; first compound 0.01 µM) of 0.699, a relative viability (SK-LU-1; first compound 0.03162 µM) of 0.424 and a relative viability (SK-LU-1; first compound 0.1 µM) of 0.532. For the same compound, the relative viability (NCI-H2342; first compound 0.001 µM) was 0.704, the relative viability (NCI-H2342; first compound 0.003162 µM) was 0.735 and the relative viability (NCI-H2342; first compound 0.01 µM) was 0.666. For the same compound, the relative viability (NCI-H2342; first compound 0.03162 µM) was 0.591, the relative viability (NCI-H2342; first compound 0.1 µM) was 0.754 and the relative viability (NCI-H1355; first compound 0.001 µM) was 0.355. For the same compound, the relative viability (NCI-H1355; first compound 0.003162 µM) was 0.381, the relative viability (NCI-H1355; first compound 0.01 µM) was 0.382 and the relative viability (NCI-H1355; first compound 0.03162 µM) was 0.408. For the same compound, the relative viability (NCI-H1355; first compound 0.1 µM) was 0.418, the relative viability (NCI-H1915; first compound 0.001 µM) was 0.28 and the relative viability (NCI-H1915; first compound 0.003162 µM) was 0.271. For the same compound, the relative viability (NCI-H1915; first compound 0.01 µM) was 0.255, the relative viability (NCI-H1915; first compound 0.03162 µM) was 0.318 and the relative viability (NCI-H1915; first compound 0.1 µM) was 0.325. It also gave a relative viability (SW 1573; first compound 0.001 µM) of 0.455, a relative viability (SW 1573; first compound 0.003162 µM) of 0.622 and a relative viability (SW 1573; first compound 0.01 µM) of 0.924. The relative viability (SW 1573; first compound 0.03162 µM) was 0.533, the relative viability (SW 1573; first compound 0.1 µM) was 0.297 and the relative viability (LCLC-103H; first compound 0.001 µM) was 0.77. The relative viability (LCLC-103H; first compound 0.003162 µM) was 0.883, the relative viability (LCLC-103H; first compound 0.01 µM) was 0.815 and the relative viability (LCLC-103H; first compound 0.03162 µM) was 0.744. For the same compound, the relative viability (LCLC-103H; first compound 0.1 µM) was 0.721, the relative viability (NCI-H1975; first compound 0.001 µM) was 0.339 and the relative viability (NCI-H1975; first compound 0.003162 µM) was 0.393. The relative viability (NCI-H1975; first compound 0.01 µM) was 0.383, the relative viability (NCI-H1975; first compound 0.03162 µM) was 0.389 and the relative viability (NCI-H1975; first compound 0.1 µM) was 0.275. It also gave a relative viability (NCI-H2347; first compound 0.001 µM) of 0.637, a relative viability (NCI-H2347; first compound 0.003162 µM) of 0.694 and a relative viability (NCI-H2347; first compound 0.01 µM) of 0.718. The relative viability (NCI-H2347; first compound 0.03162 µM) was 0.626, the relative viability (NCI-H2347; first compound 0.1 µM) was 0.601 and the relative viability (HCC-827; first compound 0.001 µM) was 0.303. For the same compound, the relative viability (HCC-827; first compound 0.003162 µM) was 0.41, the relative viability (HCC-827; first compound 0.03162 µM) was 0.296 and the relative viability (HCC-827; first compound 0.1 µM) was 0.328. It also gave a relative viability (NCI-H23; first compound 0.001 µM) of 0.355, a relative viability (NCI-H23; first compound 0.003162 µM) of 0.352 and a relative viability (NCI-H23; first compound 0.01 µM) of 0.344. For the same compound, the relative viability (NCI-H23; first compound 0.03162 µM) was 0.351, the relative viability (NCI-H23; first compound 0.1 µM) was 0.273 and the relative viability (NCI-H650; first compound 0.001 µM) was 0.295. It also gave a relative viability (NCI-H650; first compound 0.003162 µM) of 0.379, a relative viability (NCI-H650; first compound 0.01 µM) of 0.387 and a relative viability (NCI-H650; first compound 0.03162 µM) of 0.315. For the same compound, the relative viability (NCI-H650; first compound 0.1 µM) was 0.306, the relative viability (SK-MES-1; first compound 0.001 µM) was 0.409 and the relative viability (SK-MES-1; first compound 0.003162 µM) was 0.487. The relative viability (SK-MES-1; first compound 0.01 µM) was 0.575, the relative viability (SK-MES-1; first compound 0.03162 µM) was 0.617 and the relative viability (SK-MES-1; first compound 0.1 µM) was 0.46. The relative viability (UMC-11; first compound 0.001 µM) was 0.607, the relative viability (UMC-11; first compound 0.003162 µM) was 0.591 and the relative viability (UMC-11; first compound 0.01 µM) was 0.566. For the same compound, the relative viability (UMC-11; first compound 0.03162 µM) was 0.551, the relative viability (UMC-11; first compound 0.1 µM) was 0.622 and the relative viability (NCI-H1755; first compound 0.001 µM) was 0.742. For the same compound, the relative viability (NCI-H1755; first compound 0.003162 µM) was 0.81, the relative viability (NCI-H1755; first compound 0.01 µM) was 0.78 and the relative viability (NCI-H1755; first compound 0.03162 µM) was 0.961. The relative viability (NCI-H1755; first compound 0.1 µM) was 0.846, the relative viability (HCC-366; first compound 0.001 µM) was 0.325 and the relative viability (HCC-366; first compound 0.003162 µM) was 0.348. The relative viability (HCC-366; first compound 0.01 µM) was 0.41, the relative viability (HCC-366; first compound 0.03162 µM) was 0.445 and the relative viability (HCC-366; first compound 0.1 µM) was 0.37. The relative viability (RERF-LC-KJ; first compound 0.001 µM) was 0.732, the relative viability (RERF-LC-KJ; first compound 0.003162 µM) was 0.796 and the relative viability (RERF-LC-KJ; first compound 0.01 µM) was 0.771. The relative viability (RERF-LC-KJ; first compound 0.03162 µM) was 0.653, the relative viability (RERF-LC-KJ; first compound 0.1 µM) was 0.449 and the relative viability (NCI-H2170; first compound 0.001 µM) was 0.488. It also gave a relative viability (NCI-H2170; first compound 0.003162 µM) of 0.553, a relative viability (NCI-H2170; first compound 0.01 µM) of 0.539 and a relative viability (NCI-H2170; first compound 0.03162 µM) of 0.56. For the same compound, the relative viability (NCI-H2170; first compound 0.1 µM) was 0.649, the relative viability (NCI-H1792; first compound 0.001 µM) was 0.463 and the relative viability (NCI-H1792; first compound 0.003162 µM) was 0.691. The relative viability (NCI-H1792; first compound 0.01 µM) was 0.66, the relative viability (NCI-H1792; first compound 0.03162 µM) was 0.403 and the relative viability (NCI-H1792; first compound 0.1 µM) was 0.633. The relative viability (A-427; first compound 0.001 µM) was 0.586, the relative viability (A-427; first compound 0.003162 µM) was 0.565 and the relative viability (A-427; first compound 0.01 µM) was 0.658. It also gave a relative viability (A-427; first compound 0.03162 µM) of 0.663, a relative viability (A-427; first compound 0.1 µM) of 0.695 and a relative viability (LC-2-ad; first compound 0.001 µM) of 0.8. It also gave a relative viability (LC-2-ad; first compound 0.003162 µM) of 0.982, a relative viability (LC-2-ad; first compound 0.01 µM) of 0.796 and a relative viability (LC-2-ad; first compound 0.03162 µM) of 0.859. For the same compound, the relative viability (LC-2-ad; first compound 0.1 µM) was 0.803.
